Source: US8575111B2, “Pharmaceutical compositions and methods for treating erectile dysfunction” (Universidade Federal de Minas Garais-UFMG, priority 2007, dated 2013)

Columns and labels:
[1] = system: erectile dysfunction; settings: men with erectile dysfunction; cited from earlier work
[2] = Absorption and biological stability after gavage in Wistar rats; assay type: in vivo, rat; settings: Ang-(1-7) peptide alone, gavage 100 μg/50 μl
Procedure: Assays for determining absorption and biological stability of the Ang-(1-7)/HPβ-CD inclusion complex were made in aqueous solution. Twelve normal Wistar rats properly prepared were used to carry out the experiments. The animals were divided in 3 experimental groups and subjected to a gavage procedure with a salt solution (0.9%/50 μl) of Ang-(1-7) (100 μg/50 μl) and Ang-(1-7)/HPβ-CD (100 μg/50 μl). Four blood samples (1 ml, each) from the animals were collected. The first collection occurred before gavage procedure, and the remaining three 2, 6 and 24 hours post gavage.

[3] = system: erectile function of SHR; test: Erectile function (CCP/MAP) of SHR chronically treated orally; assay type: in vivo, rat; settings: chronic oral treatment, drug alone, 1.5 V
Procedure: Eight weeks post-treatment with Ang-(1-7)/HPβ-CD Inclusion Complex and/or Atenolol, the erectile function of the animals (SHR, spontaneously hypertensive rats) was evaluated. Particularly, erectile function of animals chronically treated with Atenolol was evaluated after concurrent administration with Ang-(1-7)/HPβ-CD Inclusion Complex. The drugs were orally administered via solutions containing them, alone or in combination. As a control, a group of animals was treated with HPβ-CD.
The procedure for inducing erection and intracavernosal pressure measurement was made as previously described (see, T. M. Mills, R. W. Lewis, V. S. Stopper, Biol Reprod 59, 1413 (December, 1998). Firstly, the animals (SHR) were anesthetized with intraperitoneal urethane (140 mg/kg) and placed on a thermal plate to maintain body temperature at 37° C. A polyethylene cannule was introduced into the animal trachea to keep respiratory patency. Following, the rat left femoral artery was cannulated with a polyethylene tube (PE-50) with heparinized saline (200 U/ml) for continuous monitoring of mean arterial pressure (MAP). The catheter was connected to a pressure transducer. The penial erection was obtained by applying electric stimulation on the major pelvic ganglion (MPG). […]

[4] = system: rat ganglionic-stimulated erectile response; test: Ganglionic-stimulated changes in CCP/MAP after intracavernosal drug administration in anesthetized rats; assay type: in vivo
Procedure: Normotensive and DOCA-salt hypertensive rats, Mas−/− and WT mice were anesthetized with intraperitoneal urethane (140 mg/Kg). The rat left femoral artery and mice […] was cannulated for continuous monitoring of mean arterial pressure (MAP). The shaft of the penis was freed of skin and fascia, and the right corpus cavernosum was cannulated by insertion of a 30-gauge needle connected to a pressure transducer, permitting continuous monitoring of corpus cavernosum pressure (CCP) as described elsewhere (see, e.g., T. M. Mills, et al., Biol Reprod 59, 1413 (December, 1998)). The rat left corpus cavernosum was cannulated with 30-gauge needles attached to 10-μL syringes via short lengths of polyethylene (PE)-10 tubing and used for administration of vasoactive drugs. The abdominal cavity was opened, exposing the right major pelvic ganglion (MPG), and silver bipolar electrodes were positioned on it. […]
In order to evaluate the role of the Ang-(1-7) released endogenously, it was first determined the minimal stimuli in which the maximal value of the CCP/MAP was achieved. […]
To evaluate the effect of Ang-(1-7) on ganglionic-stimulated CCP/MAP rise in the presence of NOS inhibition, a sub-maximal stimulus was determined and applied to the MPG. […] Thereafter, Ang-(1-7) was administered and sub-maximal stimulus was applied while CCP/MAP was continuously recorded.

[5] = target: T1, AT1 (Homo sapiens, UniProt P30556); settings: receptor AT1; cited from earlier work
T1 sequence (P30556 1-359): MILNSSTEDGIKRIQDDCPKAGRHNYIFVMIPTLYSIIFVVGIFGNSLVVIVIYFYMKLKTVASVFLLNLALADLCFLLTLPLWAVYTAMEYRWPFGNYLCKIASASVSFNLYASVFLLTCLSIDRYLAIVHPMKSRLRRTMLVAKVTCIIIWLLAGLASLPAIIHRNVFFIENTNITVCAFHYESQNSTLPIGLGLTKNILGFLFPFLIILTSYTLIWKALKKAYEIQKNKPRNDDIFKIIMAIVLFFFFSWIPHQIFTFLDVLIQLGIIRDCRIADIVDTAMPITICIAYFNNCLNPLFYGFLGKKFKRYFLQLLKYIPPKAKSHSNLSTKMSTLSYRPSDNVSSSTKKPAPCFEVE

## CCCCC[C@H](O)/C=C/[C@H]1[C@H](O)CC(=O)[C@@H]1CCCCCCC(=O)O [ALPROSTADIL®]
[1]
  patients in whom the treatment is effective: over 80%

## CC[C@H](C)[C@H](NC(=O)[C@H](Cc1ccc(O)cc1)NC(=O)[C@@H](NC(=O)[C@H](CCCNC(=N)N)NC(=O)[C@@H](N)CC(=O)O)C(C)C)C(=O)N[C@@H](Cc1c[nH]cn1)C(=O)N1CCC[C@H]1C(=O)O [Ang-(1-7), Asp-Arg-Val-Tyr-Ile-His-Pro]
[2]
  increase of plasmatic peptide concentration relative to Ang-(1-7)/HPβ-CD: about 8 fold lower

## CC(C)NCC(O)COc1ccc(CC(N)=O)cc1 (stereo not drawn) [Atenolol, atenolol]
[3]
  effect on intracavernosal pressure rise induced by stimulation of the major pelvic ganglion: reduced

## COC(=O)[C@@H](N)CCCNC(=N)N[N+](=O)[O-] [L-NAME, Nw-nitro-L-arginine methyl ester]
[4]; L-NAME 200 μg/Kg intracavernosal, mean±s.e.m., n=6, control 0.57±0.06, P<0.05
  CCP/MAP induced by submaximal stimulus: 0.38±0.05
[4]; administration into left cavernosal sinuses
  effect on baseline CCP or MAP: did not alter

## Des-Asp1-Ang I: angiotensin listed in Table 1, acting on AT1 (RVYIHPFHL; Angiotensin-1; UniProt P01019 26-34, looked up, fragment)
[5]
  Actions: Inhibition of Ang II-induced cell
